Reference: PubChem BioAssay (NCI)
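96-well plates; 48 h exposure; 5 concentrations. Endpoints by linear interpolation between flanking doses. Not reached: highest tested concentration assigned. The concentration for full growth arrest is given as TGI.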

Legend:
Test in all cases: DTP human tumour cell line panel, 48 h
SW-620 colon = system: SW-620 colon
HT29 colon = system: HT29 colon
KM20L2 colon = system: KM20L2 colon
HOP-92 NSCLC = system: HOP-92 NSCLC
HCT-15 colon = system: HCT-15 colon
A549 NSCLC = system: A549 NSCLC
MALME-3M melanoma = system: MALME-3M melanoma
NCI-H23 lung = system: NCI-H23 lung
KM12 colon = system: KM12 colon
CAKI-1 renal = system: CAKI-1 renal
SNB-19 CNS = system: SNB-19 CNS
TK-10 renal = system: TK-10 renal
DLD-1 colon = system: DLD-1 colon
NCI-H522 lung = system: NCI-H522 lung
DMS 273 small cell lung = system: DMS 273 small cell lung
LXFL 529 NSCLC = system: LXFL 529 NSCLC
SF-539 CNS = system: SF-539 CNS
OVCAR-8 ovarian = system: OVCAR-8 ovarian
UACC-257 melanoma = system: UACC-257 melanoma
HCT-116 colon = system: HCT-116 colon
SK-MEL-28 melanoma = system: SK-MEL-28 melanoma
M19-MEL melanoma = system: M19-MEL melanoma
MOLT-4 leukemia = system: MOLT-4 leukemia
SR leukemia = system: SR leukemia
U251 CNS = system: U251 CNS
UO-31 renal = system: UO-31 renal
HCC-2998 colon = system: HCC-2998 colon
NCI-H460 lung = system: NCI-H460 lung
CCRF-CEM leukemia = system: CCRF-CEM leukemia
SF-295 CNS = system: SF-295 CNS
RPMI-8226 leukemia = system: RPMI-8226 leukemia
EKVX NSCLC = system: EKVX NSCLC
HL-60(TB) leukemia = system: HL-60(TB) leukemia
XF 498 CNS = system: XF 498 CNS
SK-MEL-5 melanoma = system: SK-MEL-5 melanoma
A498 renal = system: A498 renal
OVCAR-3 ovarian = system: OVCAR-3 ovarian
UACC-62 melanoma = system: UACC-62 melanoma
HOP-62 NSCLC = system: HOP-62 NSCLC
SK-OV-3 ovarian = system: SK-OV-3 ovarian
SNB-75 CNS = system: SNB-75 CNS
OVCAR-4 ovarian = system: OVCAR-4 ovarian
DMS 114 small cell lung = system: DMS 114 small cell lung
M14 melanoma = system: M14 melanoma
SK-MEL-2 melanoma = system: SK-MEL-2 melanoma
SF-268 CNS = system: SF-268 CNS
K-562 leukemia = system: K-562 leukemia
SN12C renal = system: SN12C renal
NCI-H226 lung = system: NCI-H226 lung
COLO 205 colon = system: COLO 205 colon
ACHN renal = system: ACHN renal
OVCAR-5 ovarian = system: OVCAR-5 ovarian
LOX IMVI melanoma = system: LOX IMVI melanoma
RXF 393 renal = system: RXF 393 renal
SNB-78 CNS = system: SNB-78 CNS
IGROV1 ovarian = system: IGROV1 ovarian
786-0 renal = system: 786-0 renal

With `O=C1CSC(C(N=Nc2ccc(Cl)cc2)c2nc3ccccc3[nH]2)=N1` (stereo unspecified) the TGI (SW-620 colon) was greater than 100 µM, the TGI (HT29 colon) was greater than 100 µM and the TGI (KM20L2 colon) was greater than 100 µM. It also gave a TGI (HOP-92 NSCLC) greater than 100 µM, a TGI (HCT-15 colon) greater than 100 µM and a TGI (A549 NSCLC) greater than 100 µM. It also gave a TGI (MALME-3M melanoma) greater than 100 µM, a TGI (NCI-H23 lung) greater than 100 µM and a TGI (KM12 colon) greater than 100 µM. The TGI (CAKI-1 renal) was greater than 100 µM, the TGI (SNB-19 CNS) was greater than 100 µM and the TGI (TK-10 renal) was greater than 100 µM. The TGI (DLD-1 colon) was greater than 100 µM, the TGI (NCI-H522 lung) was 71.1 µM and the TGI (DMS 273 small cell lung) was greater than 100 µM. The TGI (LXFL 529 NSCLC) was greater than 100 µM, the TGI (SF-539 CNS) was 52.9 µM and the TGI (OVCAR-8 ovarian) was greater than 100 µM. It also gave a TGI (UACC-257 melanoma) greater than 100 µM, a TGI (HCT-116 colon) greater than 100 µM and a TGI (SK-MEL-28 melanoma) of 92.2 µM. For the same compound, the TGI (M19-MEL melanoma) was greater than 100 µM, the TGI (MOLT-4 leukemia) was 39.8 µM and the TGI (SR leukemia) was greater than 100 µM. For the same compound, the TGI (U251 CNS) was greater than 100 µM, the TGI (UO-31 renal) was greater than 100 µM and the TGI (HCC-2998 colon) was greater than 100 µM. For the same compound, the TGI (NCI-H460 lung) was greater than 100 µM, the TGI (CCRF-CEM leukemia) was greater than 100 µM and the TGI (SF-295 CNS) was greater than 100 µM. The TGI (RPMI-8226 leukemia) was greater than 100 µM, the TGI (EKVX NSCLC) was greater than 100 µM and the TGI (HL-60(TB) leukemia) was greater than 100 µM. It also gave a TGI (XF 498 CNS) of 45.9 µM, a TGI (SK-MEL-5 melanoma) of 88.4 µM and a TGI (A498 renal) greater than 100 µM. The TGI (OVCAR-3 ovarian) was greater than 100 µM, the TGI (UACC-62 melanoma) was greater than 100 µM and the TGI (HOP-62 NSCLC) was greater than 100 µM. The TGI (SK-OV-3 ovarian) was greater than 100 µM, the TGI (SNB-75 CNS) was 90.2 µM and the TGI (OVCAR-4 ovarian) was greater than 100 µM. For the same compound, the TGI (DMS 114 small cell lung) was 58.5 µM, the TGI (M14 melanoma) was greater than 100 µM and the TGI (SK-MEL-2 melanoma) was 41.8 µM. For the same compound, the TGI (SF-268 CNS) was greater than 100 µM, the TGI (K-562 leukemia) was greater than 100 µM and the TGI (SN12C renal) was greater than 100 µM. For the same compound, the TGI (NCI-H226 lung) was 52 µM, the TGI (COLO 205 colon) was greater than 100 µM and the TGI (ACHN renal) was greater than 100 µM. For the same compound, the TGI (OVCAR-5 ovarian) was greater than 100 µM.

`COC(=O)C(=O)C(CC(=O)Nc1cccc(C(F)(F)F)c1)C(=O)OC` (stereo unspecified) gave a TGI (SW-620 colon) greater than 100 µM, a TGI (KM20L2 colon) greater than 100 µM and a TGI (HOP-92 NSCLC) greater than 100 µM. It also gave a TGI (HCT-15 colon) greater than 100 µM, a TGI (A549 NSCLC) greater than 100 µM and a TGI (MALME-3M melanoma) greater than 100 µM. It also gave a TGI (LOX IMVI melanoma) greater than 100 µM, a TGI (NCI-H23 lung) greater than 100 µM and a TGI (CAKI-1 renal) greater than 100 µM. It also gave a TGI (SNB-19 CNS) greater than 100 µM, a TGI (TK-10 renal) greater than 100 µM and a TGI (DLD-1 colon) greater than 100 µM. It also gave a TGI (NCI-H522 lung) greater than 100 µM, a TGI (LXFL 529 NSCLC) greater than 100 µM and a TGI (SF-539 CNS) greater than 100 µM. The TGI (OVCAR-8 ovarian) was greater than 100 µM, the TGI (RXF 393 renal) was greater than 100 µM and the TGI (HCT-116 colon) was greater than 100 µM. The TGI (SK-MEL-28 melanoma) was greater than 100 µM, the TGI (M19-MEL melanoma) was greater than 100 µM and the TGI (MOLT-4 leukemia) was greater than 100 µM. For the same compound, the TGI (U251 CNS) was greater than 100 µM, the TGI (UO-31 renal) was greater than 100 µM and the TGI (HCC-2998 colon) was greater than 100 µM. The TGI (NCI-H460 lung) was greater than 100 µM, the TGI (CCRF-CEM leukemia) was greater than 100 µM and the TGI (RPMI-8226 leukemia) was greater than 100 µM. The TGI (SNB-78 CNS) was greater than 100 µM, the TGI (IGROV1 ovarian) was greater than 100 µM and the TGI (EKVX NSCLC) was greater than 100 µM. For the same compound, the TGI (HL-60(TB) leukemia) was greater than 100 µM, the TGI (SK-MEL-5 melanoma) was greater than 100 µM and the TGI (A498 renal) was greater than 100 µM. For the same compound, the TGI (UACC-62 melanoma) was greater than 100 µM, the TGI (HOP-62 NSCLC) was greater than 100 µM and the TGI (SK-OV-3 ovarian) was greater than 100 µM. It also gave a TGI (SNB-75 CNS) greater than 100 µM, a TGI (OVCAR-4 ovarian) greater than 100 µM and a TGI (DMS 114 small cell lung) greater than 100 µM. For the same compound, the TGI (786-0 renal) was greater than 100 µM, the TGI (M14 melanoma) was greater than 100 µM and the TGI (SK-MEL-2 melanoma) was greater than 100 µM. For the same compound, the TGI (SF-268 CNS) was greater than 100 µM, the TGI (K-562 leukemia) was greater than 100 µM and the TGI (SN12C renal) was greater than 100 µM. The TGI (NCI-H226 lung) was greater than 100 µM, the TGI (COLO 205 colon) was greater than 100 µM and the TGI (ACHN renal) was greater than 100 µM. The TGI (OVCAR-5 ovarian) was greater than 100 µM.
